# Reference: paper PMC2995738, “In Vitro and In Vivo Anti-Inflammatory Activity of 17-O-Acetylacuminolide through the Inhibition of Cytokines, NF-κB Translocation and IKKβ Activity” (PLoS ONE, 2010)
# pEC50: −log10 of the molar value.
# Target: T1, IKKβ (Homo sapiens, UniProt O14920)
# T1 construct: gene IKBKB; Human, recombinant IKKβ
# T1 sequence (O14920 1-756): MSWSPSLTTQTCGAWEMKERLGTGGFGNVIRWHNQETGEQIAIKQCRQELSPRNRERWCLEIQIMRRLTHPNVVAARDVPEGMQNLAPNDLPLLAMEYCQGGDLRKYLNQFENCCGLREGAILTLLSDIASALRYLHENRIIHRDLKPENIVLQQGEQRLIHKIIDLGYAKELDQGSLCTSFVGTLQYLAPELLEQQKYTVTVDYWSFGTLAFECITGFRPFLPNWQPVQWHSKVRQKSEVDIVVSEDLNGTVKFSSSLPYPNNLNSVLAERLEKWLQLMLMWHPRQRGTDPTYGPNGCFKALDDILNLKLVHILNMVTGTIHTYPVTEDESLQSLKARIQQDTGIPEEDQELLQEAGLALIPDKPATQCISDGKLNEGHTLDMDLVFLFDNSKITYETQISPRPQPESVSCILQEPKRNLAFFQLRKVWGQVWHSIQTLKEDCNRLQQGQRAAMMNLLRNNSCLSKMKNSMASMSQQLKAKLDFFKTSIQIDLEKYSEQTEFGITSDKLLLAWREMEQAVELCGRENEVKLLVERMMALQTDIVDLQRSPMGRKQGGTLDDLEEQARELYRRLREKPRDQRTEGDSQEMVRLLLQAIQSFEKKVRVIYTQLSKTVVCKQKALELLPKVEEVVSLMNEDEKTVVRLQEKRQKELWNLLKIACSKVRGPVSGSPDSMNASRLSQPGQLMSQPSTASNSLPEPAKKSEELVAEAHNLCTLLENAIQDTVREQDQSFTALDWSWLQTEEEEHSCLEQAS
# Assay: K-LISA IKKβ inhibitor screening kit (ELISA of GST-IκBα phosphorylation by recombinant IKKβ)
# Assay type: biochemical
smiles,measurement,value
"CC(=O)OC[C@@]12CC[C@H]3C(C)(C)CCC[C@]3(C)[C@H]1C[C@@H](C1=CC(=O)O[C@H]1O)O2 [AA, (12S)-17-acetoxy-8a,12-epoxy-16(R)-hydroxylabd-13(14)Z-en-15,16-olide]",pEC50,4.88
